This note sets out measurements from ChEMBL document CHEMBL5233264, “Targeting MYC: From understanding its biology to drug discovery” (Eur J Med Chem, 2021).

In experiment [1] the target is Bromodomain-containing protein 4 (Homo sapiens, UniProt O60885). Put plainly: Inhibition of BRD4 (unknown origin).
Experiment [2] is filed under the species Homo sapiens. Put plainly: Binding affinity to double-stranded DNA FdxT (unknown origin) assessed as change in melting temperature at 1 uM by high-throughput FRET melting assay.
The species entered for experiment [3] is Homo sapiens. Put plainly: Binding affinity to c-MYC promoter G4 sequences FmycT (unknown origin) assessed as change in melting temperature at 1 uM by high-throughput FRET melting assay.
The species entered for experiment [4] is Homo sapiens. The experiment is described as follows: Binding affinity to human telomeric repeat F21T assessed as change in melting temperature at 1 uM by high-throughput FRET melting assay.
For another experiment, the system named is Calf thymus DNA. The experiment is described as follows: Binding affinity to calf thymus DNA sequence. The experiment is classed as nucleic-acid assay, Bos taurus.
In experiment [5] the target is Quadruplex DNA. Put plainly: Binding affinity to human MYC G4 DNA sequence. The experiment is classed as nucleic-acid assay.
Another experiment concerns HepG2. The experiment is described as follows: Anticancer activity against human HepG2 cells. The experiment is classed as functional, cell-based.
For a further experiment, the system named is HL-60. The experiment is described as follows: Cytotoxicity against human HL-60 cells measured after 72 hrs by MTT assay. The settings on record: HL-60, 72 h. The experiment is classed as functional, cell-based.
Experiment [6] addresses Quadruplex DNA. Put plainly: Binding affinity to MYC G4-quadruplex DNA (unknown origin) assessed as dissociation constant. The experiment is classed as nucleic-acid assay.
Another experiment concerns 4T1. The experiment is described as follows: Anticancer activity against mouse 4T1 cells. The experiment is classed as functional, cell-based.
Experiment [7] can be described thus: In vivo inhibition of BRD4 in human MV4-11 cells xenografted in mouse tumor model. The experiment is classed as functional, organism-based.
The nature of experiment [8]: Growth inhibition of human Burkitts lymphoma cell. The experiment is classed as functional, cell-based.
The nature of experiment [9]: Binding affinity to MYC bHLH Zip (unknown origin) assessed as dissociation constant by microscale thermophoresis assay. Further details: species or system Homo sapiens.

With `Oc1ccc(Cl)c2cccnc12` [CLOXYQUIN], the IC50 in experiment [1] was found to be 6.47 µM.

With `C[n+]1cc(NC(=O)c2ccc3ccc4ccc(C(=O)Nc5cc6ccccc6[n+](C)c5)nc4c3n2)cc2ccccc21`, the results for the ΔTm in the experiment listed under Homo sapiens [2], in the experiment filed under Homo sapiens [3] and in the experiment filed under Homo sapiens [4] were 0 °C, 12 °C and 17.3 °C, respectively. As to `CN(CCc1ccc(Br)cc1)c1ccc2nc3ccc(N(C)CCc4ccc(Br)cc4)cc3[s+]c2c1`, the dissociation constant Kd was found to be 11 µM with Calf thymus DNA and 0.07 µM at Quadruplex DNA [5]. The compound also had an IC50 in the experiment on HepG2 of 1 µM. `COC(=O)c1ccc(Nc2ccc([N+](=O)[O-])c3nonc23)c(-c2ccc(C)cc2)c1` had a 50% inhibitory concentration (IC50) with HL-60 of 23 µM. With `O=c1oc2c3c4c(cc2cc1-c1nc2ccccc2s1)CCCN4CCC3`, the Kd at Quadruplex DNA [6] was found to be 2 µM. In the case of `CN1CCN(c2ccc(-c3nc4cc(F)c(F)cc4nc3-c3ccc(N4CCN(C)CC4)cc3)cc2)CC1`, half-maximal inhibition with 4T1 (IC50) required 0.7 µM. Besides, the Kd on Quadruplex DNA [6] turned out to be 1.3 µM. Take `Cc1noc2c1-c1ccccc1C(c1ccc(Cl)cc1)=N[C@H]2CC(N)=O` [PELABRESIB]: in experiment [7], the IC50 amounted to 0.12 µM. In experiment [1], `CCS(=O)(=O)Nc1ccc(Oc2ccc(F)cc2F)c(-c2cn(C)c(=O)c3[nH]ccc23)c1` [MIVEBRESIB] displayed a concentration for half-maximal inhibition (IC50) of 0.003 µM. Consider `CCOc1ccc2nc3cc(/N=N/c4ccc(N)cc4N)ccc3c(N)c2c1`, for which, in experiment [8], the IC50 was 0.5 µM. For the same compound, in experiment [9], the Kd came out at 2 µM. Consider `CN(C)c1ccc2nc3ccc(N(C)C)cc3[s+]c2c1` [METHYLENE BLUE ANHYDROUS], for which the Kd with Calf thymus DNA and on Quadruplex DNA [5] was 0.2 µM throughout. This compound showed an IC50 in the experiment on HepG2 of 6 µM. For `CCn1cc(C(=O)O)c(=O)c2cc(F)c(N3CCNCC3)cc21` [NORFLOXACIN], the midpoint of inhibition in [1], the IC50, lay at 0.98 µM.

In the case of `O=[N+]([O-])c1ccc(Nc2ccccc2-c2ccccc2)c2nonc12`, the IC50 in the experiment with HL-60 came out at 23 µM.

For `CN1CCN(c2ccc(-c3nc(-c4nc5ccccc5s4)[nH]c3-c3ccc(N4CCN(C)CC4)cc3)cc2)CC1`, the concentration for half-maximal inhibition (IC50) in the experiment on 4T1 stood at 3.9 µM; in the experiment with HepG2, 4.5 µM. Further, the Kd on Quadruplex DNA [6] was determined as 2 µM. In the case of `c1cc2ccc3ccc4nc3c2nc1CNCCCCCCCNC4`, the ΔTm in the experiment filed under Homo sapiens [2] was determined as 9.2 °C; in the experiment filed under Homo sapiens [3] it was 3.6 °C; in the experiment filed under Homo sapiens [4], 9.2 °C. In the experiment on HL-60, `CCCCOC(=O)CCN1C(=O)S/C(=C\c2ccc(CC)cc2)C1=O` registered an IC50 of 5 µM.
